Data on six compounds can be found in ChEMBL document CHEMBL1201862, “PubChem BioAssay data set” (2004).

Calls of active or inactive are those of the source. A value given as a limit tells only on which side of the number the result lay.

Assay [1] addresses Peroxisome proliferator-activated receptor gamma/Nuclear receptor coactivator 1 (Homo sapiens, UniProt P37231). Put plainly: TR-FRET dose response biochemical High Throughput Screening assay for agonists of the steroid receptor coactivator 1 (SRC-1) recruitment by the peroxisome proliferator-activated receptor gamma (PPAR gamma): non-selective agonists. [Related pubchem assays (depositor defined):AID1300, AID1808, AID504735, AID631]. The class given is protein assay. (In TR-FRET formats the signal depends on donor and acceptor labels being close together.)

Assay [2] deals with Peroxisome proliferator-activated receptor gamma/Nuclear receptor coactivator 3 (Homo sapiens, UniProt P37231). The assay can be described thus: TR-FRET dose response biochemical High Throughput Screening assay for agonists of the steroid receptor coactivator 3 (SRC-3) recruitment by the peroxisome proliferator-activated receptor gamma (PPAR gamma): non-selective agonists. [Related pubchem assays: 1301 (Confirmation screen.), 1048 (Primary screen.)]. The class given is functional.

For assay [3], the target named is Peroxisome proliferator-activated receptor gamma/Nuclear receptor coactivator 2 (Homo sapiens, UniProt P37231). Put plainly: TR-FRET dose response biochemical High Throughput Screening assay for agonists of the steroid receptor coactivator 2 (SRC-2) recruitment by the peroxisome proliferator-activated receptor gamma (PPAR gamma): non-selective agonists. [Related pubchem assays: 1297, 1032 ]. The class given is functional.

The target of assay [4] is T1, Polyadenylate-binding protein 1 (Homo sapiens, UniProt P11940). The assay can be described thus: MLLE binding blockers, Cy5 peptide tracer – biochemical, fluorescence polarization, Cy5-PAM2 peptide, secondary, miRNA deadenylation inhibitor project, dose response (AID 602260). The class given is functional. The following applies: read-out: IC50_Mean. On the technique in general: Polarisation of emitted light reports the rotation of a fluorescent probe.
T1 sequence (P11940 whole entry): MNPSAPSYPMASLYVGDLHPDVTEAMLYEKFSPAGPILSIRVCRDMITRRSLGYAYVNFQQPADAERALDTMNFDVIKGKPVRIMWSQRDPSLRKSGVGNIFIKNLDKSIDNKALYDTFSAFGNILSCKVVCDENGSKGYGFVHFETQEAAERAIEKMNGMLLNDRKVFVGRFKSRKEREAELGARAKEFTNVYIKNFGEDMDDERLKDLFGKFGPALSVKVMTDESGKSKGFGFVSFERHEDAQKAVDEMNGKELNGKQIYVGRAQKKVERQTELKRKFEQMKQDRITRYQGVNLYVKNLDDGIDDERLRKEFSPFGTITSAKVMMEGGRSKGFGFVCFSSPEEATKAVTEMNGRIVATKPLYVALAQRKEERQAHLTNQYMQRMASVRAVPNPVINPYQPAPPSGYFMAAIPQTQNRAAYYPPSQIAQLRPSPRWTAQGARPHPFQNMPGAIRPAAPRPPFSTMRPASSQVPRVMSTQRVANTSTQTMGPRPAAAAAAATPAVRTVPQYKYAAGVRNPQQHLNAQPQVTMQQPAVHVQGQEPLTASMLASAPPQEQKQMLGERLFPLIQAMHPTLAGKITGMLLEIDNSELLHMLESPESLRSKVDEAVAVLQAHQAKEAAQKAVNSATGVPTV

Assay [5] has as its target T1, Polyadenylate-binding protein 1. Put plainly: MLLE domain peptide-binding blockers, IC50 – biochemical, fluorescence polarization, FITC-PAM2 peptide, dose response (AID 602259). The assay is classed as functional. The conditions noted are these: read-out: IC50_Mean.
For assay [6], the target named is T2, Fibrinogen beta chain (Homo sapiens, UniProt P02675). The assay can be described thus: Fluorescence polarization-based biochemical high throughput dose response assay to identify inhibitors that disrupt the binding of a cyclic peptide (Tn6) to the fibrin proteolytic product D-Dimer and fragment E complex [DD(E )].
T2 sequence (P02675 whole entry, the tested form may be a part): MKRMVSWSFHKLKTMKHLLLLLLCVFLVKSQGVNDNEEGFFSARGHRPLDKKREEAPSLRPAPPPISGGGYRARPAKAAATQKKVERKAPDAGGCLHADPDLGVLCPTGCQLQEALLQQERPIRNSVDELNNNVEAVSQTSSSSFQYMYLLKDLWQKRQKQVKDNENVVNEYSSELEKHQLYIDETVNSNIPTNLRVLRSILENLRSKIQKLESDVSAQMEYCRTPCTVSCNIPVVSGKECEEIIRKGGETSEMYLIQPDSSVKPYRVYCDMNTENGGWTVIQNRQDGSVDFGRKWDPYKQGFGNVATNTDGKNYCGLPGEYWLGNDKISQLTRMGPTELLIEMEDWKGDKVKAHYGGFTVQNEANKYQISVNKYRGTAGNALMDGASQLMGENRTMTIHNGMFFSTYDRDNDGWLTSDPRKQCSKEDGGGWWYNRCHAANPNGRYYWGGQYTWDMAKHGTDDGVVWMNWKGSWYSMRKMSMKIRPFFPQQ
Assay [7] deals with T2, Fibrinogen beta chain. Put plainly: Fluorescence polarization-based biochemical high throughput dose response assay to identify inhibitors that disrupt the binding of a cyclic peptide (Tn7) to the fibrin proteolytic product D-Dimer and fragment E complex [DD(E )].
A short description of assay [8]: luciferase reporter signal suppression in cells – H4 neuroglioma cells, luminescence, dose response (AID 1990). The class given is functional, cell-based. Background: A reporter such as luciferase makes a cellular process visible.
Assay [9] is described as follows: Luminescence Cell-Based Dose Response HTS to Identify Inhibitors of 5'UTR Stem-Loop Driven Prion Protein mRNA Translation in H4 Neuroglioblastoma Cells. [Related pubchem assays: 1827 (Project Summary), 1813 (Primary HTS)]. The class given is functional.
The nature of assay [10]: alpha-synuclein stem-loop luciferase translation blockers – H4 neuroglioma cells, luminescence, confirmation (AID 1988). The assay is classed as functional, cell-based.
For assay [11], the target named is Luciferin 4-monooxygenase (Photinus pyralis, UniProt P08659). Put plainly: inhibition of purified Photinus pyralis luciferase – biochemical, luminescence, dose response (AID 1891).
Luciferin 4-monooxygenase, sequence (P08659 whole entry): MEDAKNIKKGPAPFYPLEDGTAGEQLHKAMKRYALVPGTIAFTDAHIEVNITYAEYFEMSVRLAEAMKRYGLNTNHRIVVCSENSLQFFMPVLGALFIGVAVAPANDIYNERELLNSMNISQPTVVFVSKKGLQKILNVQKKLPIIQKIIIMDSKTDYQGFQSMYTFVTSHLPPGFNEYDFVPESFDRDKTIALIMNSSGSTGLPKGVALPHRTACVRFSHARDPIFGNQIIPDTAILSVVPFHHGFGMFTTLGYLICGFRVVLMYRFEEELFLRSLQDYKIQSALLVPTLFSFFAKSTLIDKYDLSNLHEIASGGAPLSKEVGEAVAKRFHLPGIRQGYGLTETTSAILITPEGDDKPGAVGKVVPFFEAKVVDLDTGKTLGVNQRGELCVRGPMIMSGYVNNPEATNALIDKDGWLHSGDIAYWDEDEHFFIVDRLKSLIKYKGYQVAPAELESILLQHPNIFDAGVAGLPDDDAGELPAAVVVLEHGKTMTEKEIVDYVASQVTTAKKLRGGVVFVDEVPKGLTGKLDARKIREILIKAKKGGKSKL
The nature of assay [12]: Luminescence Cell-Based Dose Confirmation HTS to Identify Inhibitors of Platelet Dense Granule Release. [Related pubchem assays: 1663 (Primary HTS), 1678 (Summary of Project)]. The class given is functional.
Assay [13] is described as follows: Trypanosoma cruzi growth suppression in host cells – NIH3T3 host cells, beta-gal luminescence, confirmation (AID 2044).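 Also: intracellular parasites grown in NIH/3T3 mouse fibroblasts as host cells; luminescent beta-galactosidase reporter signal from transgenic T. cruzi replicating inside host cells; inhibitors lower the luminescence signal.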 The assay is classed as functional, cell-based.
In assay [14] the target is Alkaline phosphatase, placental type (Homo sapiens, UniProt P05187). Put plainly: human placental alkaline phosphatase inhibition – biochemical, luminescence, confirmation (AID 1512). The assay is classed as functional.
Assay [15] concerns the target T3, Alkaline phosphatase, tissue-nonspecific isozyme (Homo sapiens, UniProt P05186).
T3 sequence (P05186 whole entry): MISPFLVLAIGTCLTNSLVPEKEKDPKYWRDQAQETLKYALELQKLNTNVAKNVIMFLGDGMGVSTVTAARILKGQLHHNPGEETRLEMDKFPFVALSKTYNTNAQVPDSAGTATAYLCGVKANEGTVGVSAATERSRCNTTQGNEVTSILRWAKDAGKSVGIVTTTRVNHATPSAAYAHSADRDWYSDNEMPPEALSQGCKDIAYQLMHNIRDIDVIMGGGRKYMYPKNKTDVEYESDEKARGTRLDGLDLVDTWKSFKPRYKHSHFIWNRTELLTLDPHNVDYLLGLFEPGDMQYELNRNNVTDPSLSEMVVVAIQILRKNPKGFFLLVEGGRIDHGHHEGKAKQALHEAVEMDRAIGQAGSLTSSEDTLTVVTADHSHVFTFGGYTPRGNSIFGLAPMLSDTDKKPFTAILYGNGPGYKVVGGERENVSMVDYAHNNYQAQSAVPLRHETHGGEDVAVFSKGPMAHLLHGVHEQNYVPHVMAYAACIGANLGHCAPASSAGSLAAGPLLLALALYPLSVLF
The assay can be described thus: potency against alkaline phosphatase TNAP – biochemical, luminescent, dose response, SAR follow-up (AID 1056).

Assay [16] addresses Oxysterols receptor LXR-beta (Homo sapiens, UniProt P55055). The assay is classed as functional, cell-based.
A short description of assay [17]: cells.
In assay [18] the target is Eukaryotic translation initiation factor 4E (Mus musculus, UniProt P63073). The assay can be described thus: blockers of eIF4G binding by eIF4E – biochemical, TR-FRET, dose response (AID 855).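 Also: potency for disrupting eIF4E binding to eIF4GI seen as loss of FRET.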 The class given is functional.
Eukaryotic translation initiation factor 4E, sequence (P63073 whole entry): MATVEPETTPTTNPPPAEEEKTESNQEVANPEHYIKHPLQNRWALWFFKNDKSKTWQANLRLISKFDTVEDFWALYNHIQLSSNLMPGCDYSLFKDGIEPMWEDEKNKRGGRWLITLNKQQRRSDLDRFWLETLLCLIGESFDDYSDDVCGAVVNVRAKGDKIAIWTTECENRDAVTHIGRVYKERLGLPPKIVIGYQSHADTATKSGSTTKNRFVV
In assay [19] the target is Glutathione-S-transferase (Schistosoma japonicum, UniProt Q26513). Put plainly: GST-antibody interaction or FRET quenching – biochemical, TR-FRET, artefact control for Vif-APOBEC3G degradation inhibitor project, dose response (AID 1117362). The class given is functional.
Glutathione-S-transferase, sequence (Q26513 whole entry): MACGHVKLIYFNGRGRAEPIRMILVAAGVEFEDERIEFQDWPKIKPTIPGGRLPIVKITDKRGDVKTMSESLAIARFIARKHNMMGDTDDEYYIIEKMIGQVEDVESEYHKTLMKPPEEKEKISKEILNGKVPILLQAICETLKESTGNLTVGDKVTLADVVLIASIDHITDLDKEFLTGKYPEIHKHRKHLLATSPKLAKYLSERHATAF
The test system of assay [20] is BJ. The assay can be described thus: BJ-TERT fibroblast viability loss – cell-based, RAS-independent, luminescence, dose response (AID 1933). The following applies: Homo sapiens. The class given is functional.
For assay [21], the system named is BJ. Put plainly: cells. The conditions noted are these: Homo sapiens. The assay is classed as functional, cell-based.
In assay [22] the test system is BJ. The assay can be described thus: BJ-TERT-LT-ST fibroblast viability loss – cell-based, RAS-independent, luminescence, dose response (AID 1935).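 Also: BJ fibroblasts immortalized with TERT plus LT and ST oncogenes.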 The class given is functional. The conditions noted are these: Homo sapiens.
Assay [23] is described as follows: DRD fibroblast viability loss – cell-based, non-viral oncogenic, luminescence, dose response (AID 1934). The class given is functional. The conditions noted are these: Homo sapiens.
Assay [24] is described as follows: toxicity toward HEK293 cells – cell-based, dry powder samples, cytotoxicity control, dose response (AID 720567). The assay is classed as functional.
Assay [25] concerns the target NAD-dependent protein deacylase sirtuin-5, mitochondrial (Homo sapiens, UniProt Q9NXA8). Put plainly: sirtuin-5 deacylation blockers, concentration series – biochemical, fluorescence imaging, cherry-pick, set 5, dose response (AID 720591).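 Also: desuccinylation of succinyl peptide AMC substrate read as fluorescence after trypsin release; potency of inhibitors that lower fluorescence and may act on trypsin instead.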
Assay [26] deals with Kallikrein-7 (Homo sapiens, UniProt P49862). The assay can be described thus: Fluorescence Intensity-based biochemical primary high throughput dose response assay to identify activators of kallikrein-7 (K7) zymogen.

Peroxisome proliferator-activated receptor gamma/Nuclear receptor coactivator 1, sequence (P37231 whole entry): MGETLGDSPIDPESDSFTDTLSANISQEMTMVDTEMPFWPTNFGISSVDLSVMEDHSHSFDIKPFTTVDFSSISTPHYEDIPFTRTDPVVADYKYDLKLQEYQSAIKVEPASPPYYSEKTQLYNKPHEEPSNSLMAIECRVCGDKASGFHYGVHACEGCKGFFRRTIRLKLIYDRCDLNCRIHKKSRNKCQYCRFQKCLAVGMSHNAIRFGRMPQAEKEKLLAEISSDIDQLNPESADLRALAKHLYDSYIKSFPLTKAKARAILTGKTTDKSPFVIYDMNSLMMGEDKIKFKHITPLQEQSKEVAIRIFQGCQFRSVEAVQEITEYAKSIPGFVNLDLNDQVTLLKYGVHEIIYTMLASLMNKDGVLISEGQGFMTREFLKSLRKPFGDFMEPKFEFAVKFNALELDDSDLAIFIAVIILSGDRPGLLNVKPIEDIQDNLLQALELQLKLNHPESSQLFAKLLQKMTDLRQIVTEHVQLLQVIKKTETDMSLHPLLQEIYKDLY
Peroxisome proliferator-activated receptor gamma/Nuclear receptor coactivator 1, sequence (Q15788 whole entry, further chain): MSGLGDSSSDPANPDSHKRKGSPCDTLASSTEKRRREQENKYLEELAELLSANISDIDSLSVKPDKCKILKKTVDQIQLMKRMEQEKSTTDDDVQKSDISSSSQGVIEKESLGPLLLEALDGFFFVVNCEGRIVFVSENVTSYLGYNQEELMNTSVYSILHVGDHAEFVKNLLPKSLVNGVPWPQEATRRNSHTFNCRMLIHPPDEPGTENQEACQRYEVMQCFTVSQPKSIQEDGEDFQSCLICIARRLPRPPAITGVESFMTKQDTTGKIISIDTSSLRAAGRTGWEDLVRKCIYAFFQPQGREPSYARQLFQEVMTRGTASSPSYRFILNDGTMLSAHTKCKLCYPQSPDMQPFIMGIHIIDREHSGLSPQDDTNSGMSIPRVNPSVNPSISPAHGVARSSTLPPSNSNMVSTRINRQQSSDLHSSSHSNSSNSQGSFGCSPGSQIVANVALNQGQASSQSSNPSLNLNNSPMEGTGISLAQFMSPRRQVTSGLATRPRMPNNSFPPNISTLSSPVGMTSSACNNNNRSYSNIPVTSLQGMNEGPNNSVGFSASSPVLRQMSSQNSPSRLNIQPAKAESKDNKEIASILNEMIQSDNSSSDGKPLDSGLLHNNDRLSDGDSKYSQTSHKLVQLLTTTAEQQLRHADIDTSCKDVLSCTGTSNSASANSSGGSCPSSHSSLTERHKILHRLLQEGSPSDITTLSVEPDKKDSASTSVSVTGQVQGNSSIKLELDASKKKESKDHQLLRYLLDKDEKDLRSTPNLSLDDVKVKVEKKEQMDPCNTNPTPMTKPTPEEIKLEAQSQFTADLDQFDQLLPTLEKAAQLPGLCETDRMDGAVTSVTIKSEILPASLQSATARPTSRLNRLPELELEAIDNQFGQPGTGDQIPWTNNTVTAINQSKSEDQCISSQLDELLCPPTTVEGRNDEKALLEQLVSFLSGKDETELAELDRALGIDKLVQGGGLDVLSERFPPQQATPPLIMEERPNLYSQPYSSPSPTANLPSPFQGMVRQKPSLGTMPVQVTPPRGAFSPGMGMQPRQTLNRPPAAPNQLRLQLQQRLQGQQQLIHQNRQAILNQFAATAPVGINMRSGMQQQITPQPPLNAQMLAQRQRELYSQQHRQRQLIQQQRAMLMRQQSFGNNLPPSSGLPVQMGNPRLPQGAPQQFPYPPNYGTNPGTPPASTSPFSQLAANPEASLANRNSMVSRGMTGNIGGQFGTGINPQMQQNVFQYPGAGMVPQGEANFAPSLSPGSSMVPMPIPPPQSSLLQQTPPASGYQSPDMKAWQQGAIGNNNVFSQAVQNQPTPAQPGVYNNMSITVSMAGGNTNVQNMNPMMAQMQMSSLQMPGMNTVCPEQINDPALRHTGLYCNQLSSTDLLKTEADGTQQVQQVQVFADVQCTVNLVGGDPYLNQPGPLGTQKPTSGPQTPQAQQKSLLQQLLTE
NAD-dependent protein deacylase sirtuin-5, mitochondrial, sequence (Q9NXA8 whole entry): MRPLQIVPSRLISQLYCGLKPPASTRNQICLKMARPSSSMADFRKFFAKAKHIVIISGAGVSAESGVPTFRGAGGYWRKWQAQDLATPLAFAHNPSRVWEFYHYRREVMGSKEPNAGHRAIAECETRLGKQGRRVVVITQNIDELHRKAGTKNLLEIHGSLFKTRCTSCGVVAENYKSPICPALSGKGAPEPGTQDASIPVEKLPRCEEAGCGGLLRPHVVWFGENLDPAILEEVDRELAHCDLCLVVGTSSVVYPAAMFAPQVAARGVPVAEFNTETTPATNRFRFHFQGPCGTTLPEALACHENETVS
Oxysterols receptor LXR-beta, sequence (P55055 whole entry): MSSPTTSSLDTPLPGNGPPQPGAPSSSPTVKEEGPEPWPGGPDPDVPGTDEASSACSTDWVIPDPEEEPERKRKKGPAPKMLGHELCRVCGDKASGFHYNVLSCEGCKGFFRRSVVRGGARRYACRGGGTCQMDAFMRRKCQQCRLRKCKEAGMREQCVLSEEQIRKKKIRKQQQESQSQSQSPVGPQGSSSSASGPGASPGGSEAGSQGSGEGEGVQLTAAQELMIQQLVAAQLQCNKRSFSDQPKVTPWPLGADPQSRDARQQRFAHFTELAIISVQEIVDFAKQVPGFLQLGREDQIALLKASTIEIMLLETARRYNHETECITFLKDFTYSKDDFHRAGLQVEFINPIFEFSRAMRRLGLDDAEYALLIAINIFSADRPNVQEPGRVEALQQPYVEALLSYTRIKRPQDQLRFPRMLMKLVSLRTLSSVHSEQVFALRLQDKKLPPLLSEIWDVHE

The EC50 is the midpoint of the concentration-response curve. On to `Cc1cc2cc(CNC(=O)c3ccc(S(=O)(=O)N4CCOCC4)cc3)ccc2n1C`, for which the half-maximal effective concentration (EC50) in [1] is 6.78 µM (active); in assay [2], 15.7 µM (not active); in assay [3] it was 6.71 µM (active). The IC50 in [4] is > 66 µM (inactive); in [5], 49.6 µM (inactive); in assay [6] it was 10.6 µM (inactive); in assay [7], > 83.3 µM (inactive).
`Clc1ccc(/C=C/c2nc3ccccc3[nH]2)c(Cl)c1`: the concentration giving a half-maximal response (EC50) in assay [8] was 0.55 µM (active); in [9] it was 7.08 µM (active); in assay [10] it was 2.85 µM (inconclusive); in assay [11], 0.519 µM (active); in [12], 8.31 µM (active); in [13], 3.15 µM (active). The EC50 in assay [16] and in [17] was > 67.5 µM (inactive) in each case. Further, the figures for the IC50 in assay [14] and in [15] were 2.85 µM (active) and 5.78 µM (active), respectively.
`CN(C)[C@@H]1C(=O)C(C(=O)NCN2CCCC2)=C(O)[C@@]2(O)C(O)=C3C(=O)c4c(O)cccc4[C@@](C)(O)C3CC12` (stereo not given in full): the IC50 in [18] was 12.3 µM (active); in assay [19], > 100 µM (active).
In general, AC50 refers to the concentration giving half of the maximal activity seen. For the compound `CCC1=Nc2cc(C(=O)NCCCOC)ccc2Sc2ccccc21`, the concentration for a half-maximal effect (EC50) was 8.66 µM (inconclusive) in assay [8]; 1.07 µM (active) in [20]; 16.1 µM (active) in [9]; 0.127 µM (active) in assay [10]; 13.2 µM (active) in [21]; 5.01 µM (active) in [13]. In addition, the EC50 is 0.754 µM (inconclusive) in assay [22] and 0.944 µM (active) in assay [23]. For the same compound, the AC50 in [24] was 9.95 µM (active).
Turning to `Cc1ccc(S(=O)(=O)N2[C@@H](c3ccccc3)C(C(=O)O)=CC[C@H]2c2ccc(Cl)cc2)cc1`, the AC50 in [25] is > 30 µM (inactive).
Turning to `CN(C)c1ccc(-c2cccc3nccn23)cc1`, in [26], the EC50 was > 69.5 µM (inactive).
